From patent US20020026053A1, “Novel 3-(substituted) -2- indolinones compounds and use thereof as inhibitors of protein kinase activity” (priority 1997, published 2002)

target: T1, Met receptor (EGFR/Met chimeric cells, EMR) (Homo sapiens, UniProt P08581); assay: Met Autophosphorylation Assay; assay type: biochemical; details: protocol P.130
T1 construct: expressed in transfected cells; the other entry of the earlier key: EGFR (P00533, Epidermal growth factor receptor)
Procedure, shortened: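 Met phosphorylation was measured by capture ELISA. Lysates (90 μg/100 μl, HNTG plus 1 mM PMSF) from transiently transfected EGFR/Met chimera (EMR) cells were bound for 60 min at room temperature to wells holding rabbit anti-Met (C-28) on goat anti-rabbit coat. Phosphotyrosine was the read-out.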

T1 sequence (P08581 with tags, fused parts or gaps): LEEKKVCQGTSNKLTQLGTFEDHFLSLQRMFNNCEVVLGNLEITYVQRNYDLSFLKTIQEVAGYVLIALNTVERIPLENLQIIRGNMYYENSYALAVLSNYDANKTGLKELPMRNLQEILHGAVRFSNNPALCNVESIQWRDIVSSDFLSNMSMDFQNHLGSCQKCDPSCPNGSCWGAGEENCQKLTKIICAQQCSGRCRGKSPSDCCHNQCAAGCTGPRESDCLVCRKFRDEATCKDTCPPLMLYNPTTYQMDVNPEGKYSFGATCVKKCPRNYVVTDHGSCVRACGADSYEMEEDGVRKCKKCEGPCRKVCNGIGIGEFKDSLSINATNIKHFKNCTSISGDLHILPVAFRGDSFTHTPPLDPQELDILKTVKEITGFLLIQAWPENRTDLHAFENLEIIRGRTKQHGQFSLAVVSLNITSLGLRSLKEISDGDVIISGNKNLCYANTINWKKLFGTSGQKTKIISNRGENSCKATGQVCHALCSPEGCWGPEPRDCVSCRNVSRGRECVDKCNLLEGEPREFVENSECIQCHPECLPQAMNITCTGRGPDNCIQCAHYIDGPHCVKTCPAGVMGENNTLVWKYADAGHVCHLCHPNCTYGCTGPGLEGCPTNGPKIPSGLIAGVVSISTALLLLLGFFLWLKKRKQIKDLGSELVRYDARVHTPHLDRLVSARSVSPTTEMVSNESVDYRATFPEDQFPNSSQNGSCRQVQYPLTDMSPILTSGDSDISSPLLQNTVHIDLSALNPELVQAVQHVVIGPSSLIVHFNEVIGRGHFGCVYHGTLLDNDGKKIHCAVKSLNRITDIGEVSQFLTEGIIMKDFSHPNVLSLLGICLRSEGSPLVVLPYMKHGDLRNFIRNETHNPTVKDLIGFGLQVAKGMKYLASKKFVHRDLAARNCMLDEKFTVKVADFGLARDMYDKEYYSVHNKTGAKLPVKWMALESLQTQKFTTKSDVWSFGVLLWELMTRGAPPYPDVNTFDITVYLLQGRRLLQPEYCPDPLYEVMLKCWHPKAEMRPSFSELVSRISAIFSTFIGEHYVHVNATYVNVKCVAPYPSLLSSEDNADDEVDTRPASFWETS

SMILES | Met Kinase % Inhibition (P.130) [%]
Cc1c(Br)cc(Br)c2c1C(=Cc1cccc(F)c1)C(=O)N2 [10736/H07] | 31.0
Cc1c(Br)cc(Br)c2c1C(=Cc1ccccc1F)C(=O)N2 [10736/H08] | 33.4
CCc1ccc(C=C2C(=O)Nc3c(Br)cc(Br)c(C)c32)cc1 [10736/H09] | 32.1
COc1cccc(C=C2C(=O)Nc3c(Br)cc(Br)c(C)c32)c1 [10736/H10] | 32.1
Cc1c(Br)cc(Br)c2c1C(=Cc1ccccc1Cl)C(=O)N2 [10736/H11] | 41.5
CCOc1ccc(C=C2C(=O)Nc3c(Br)cc(Br)cc32)cc1 [10737/A02] | 53.2
Cc1ccc(C=C2C(=O)Nc3c(Br)cc(Br)cc32)c(C)c1 [10737/A03] | 58.9
O=C1Nc2c(Br)cc(Br)cc2C1=Cc1cc(F)ccc1F [10737/A04] | 63.5
O=C1Nc2c(Br)cc(Br)cc2C1=Cc1cccc(F)c1F [10737/A05] | 58.9
COc1ccc(C=C2C(=O)Nc3c(Br)cc(Br)cc32)cc1F [10737/A06] | 57.1
Cc1ccc(C)c(C=C2C(=O)Nc3c(Br)cc(Br)cc32)c1 [10737/A07] | 30.1
O=C1Nc2c(Br)cc(Br)cc2C1=Cc1ccc2ccccc2c1 [10737/A08] | 28.3
O=C1Nc2c(Br)cc(Br)cc2C1=Cc1ccc(Oc2ccccc2)cc1 [10737/A09] | 47.9
CC(C)(C)c1ccc(Oc2cccc(C=C3C(=O)Nc4c(Br)cc(Br)cc43)c2)cc1 [10737/A10] | 15.5
O=C1Nc2c(Br)cc(Br)cc2C1=Cc1cccc(Oc2cccc(C(F)(F)F)c2)c1 [10737/A11] | 25.3
CCOc1ccc(C=C2C(=O)Nc3ccc(I)cc32)cc1 [10737/B02] | 85.0
Cc1ccc(C=C2C(=O)Nc3ccc(I)cc32)c(C)c1 [10737/B03] | 86.3
O=C1Nc2ccc(I)cc2C1=Cc1cc(F)ccc1F [10737/B04] | 88.9
O=C1Nc2ccc(I)cc2C1=Cc1cccc(F)c1F [10737/B05] | 89.5

SMILES | Met Kinase % Inhibition (P.130) [%]
COc1ccc(C=C2C(=O)Nc3ccc(I)cc32)cc1F [10737/B06] | 84.7
Cc1ccc(C)c(C=C2C(=O)Nc3ccc(I)cc32)c1 [10737/B07] | 82.5
O=C1Nc2ccc(I)cc2C1=Cc1ccc2ccccc2c1 [10737/B08] | 84.1
O=C1Nc2ccc(I)cc2C1=Cc1ccc(Oc2ccccc2)cc1 [10737/B09] | 77.0
CC(C)(C)c1ccc(Oc2cccc(C=C3C(=O)Nc4ccc(I)cc43)c2)cc1 [10737/B10] | 84.7
O=C1Nc2ccc(I)cc2C1=Cc1cccc(Oc2cccc(C(F)(F)F)c2)c1 [10737/B11] | 78.8
CCOc1ccc(C=C2C(=O)Nc3ccc(Br)c(C)c32)cc1 [10737/C02] | 30.6
Cc1ccc(C=C2C(=O)Nc3ccc(Br)c(C)c32)c(C)c1 [10737/C03] | 52.5
Cc1c(Br)ccc2c1C(=Cc1cc(F)ccc1F)C(=O)N2 [10737/C04] | 82.0
Cc1c(Br)ccc2c1C(=Cc1cccc(F)c1F)C(=O)N2 [10737/C05] | 81.8
COc1ccc(C=C2C(=O)Nc3ccc(Br)c(C)c32)cc1F [10737/C06] | 38.6
Cc1ccc(C)c(C=C2C(=O)Nc3ccc(Br)c(C)c32)c1 [10737/C07] | 57.5
Cc1c(Br)ccc2c1C(=Cc1ccc3ccccc3c1)C(=O)N2 [10737/C08] | 54.1
Cc1c(Br)ccc2c1C(=Cc1ccc(Oc3ccccc3)cc1)C(=O)N2 [10737/C09] | 27.6
Cc1c(Br)ccc2c1C(=Cc1cccc(Oc3ccc(C(C)(C)C)cc3)c1)C(=O)N2 [10737/C10] | 60.0
Cc1c(Br)ccc2c1C(=Cc1cccc(Oc3cccc(C(F)(F)F)c3)c1)C(=O)N2 [10737/C11] | 34.0
CCOc1ccc(C=C2C(=O)Nc3ccc(S(=O)(=O)NC)cc32)cc1 [10737/D02] | 27.8
CNS(=O)(=O)c1ccc2c(c1)C(=Cc1ccc(C)cc1C)C(=O)N2 [10737/D03] | 38.6
CNS(=O)(=O)c1ccc2c(c1)C(=Cc1cc(F)ccc1F)C(=O)N2 [10737/D04] | 33.5

SMILES | Met Kinase % Inhibition (P.130) [%]
CNS(=O)(=O)c1ccc2c(c1)C(=Cc1cccc(F)c1F)C(=O)N2 [10737/D05] | 41.8
CNS(=O)(=O)c1ccc2c(c1)C(=Cc1ccc(OC)c(F)c1)C(=O)N2 [10737/D06] | 37.4
CNS(=O)(=O)c1ccc2c(c1)C(=Cc1cc(C)ccc1C)C(=O)N2 [10737/D07] | 37.0
CNS(=O)(=O)c1ccc2c(c1)C(=Cc1ccc3ccccc3c1)C(=O)N2 [10737/D08] | 42.0
CNS(=O)(=O)c1ccc2c(c1)C(=Cc1ccc(Oc3ccccc3)cc1)C(=O)N2 [10737/D09] | 36.0
CNS(=O)(=O)c1ccc2c(c1)C(=Cc1cccc(Oc3ccc(C(C)(C)C)cc3)c1)C(=O)N2 [10737/D10] | 24.8
CNS(=O)(=O)c1ccc2c(c1)C(=Cc1cccc(Oc3cccc(C(F)(F)F)c3)c1)C(=O)N2 [10737/D11] | 43.4
CCOc1ccc(C=C2C(=O)Nc3ccc(S(=O)(=O)Nc4ccc(C(F)(F)F)cc4)cc32)cc1 [10737/E02] | 53.0
Cc1ccc(C=C2C(=O)Nc3ccc(S(=O)(=O)Nc4ccc(C(F)(F)F)cc4)cc32)c(C)c1 [10737/E03] | 13.4
O=C1Nc2ccc(S(=O)(=O)Nc3ccc(C(F)(F)F)cc3)cc2C1=Cc1cc(F)ccc1F [10737/E04] | 79.3
O=C1Nc2ccc(S(=O)(=O)Nc3ccc(C(F)(F)F)cc3)cc2C1=Cc1cccc(F)c1F [10737/E05] | 80.9
COc1ccc(C=C2C(=O)Nc3ccc(S(=O)(=O)Nc4ccc(C(F)(F)F)cc4)cc32)cc1F [10737/E06] | 57.8
Cc1ccc(C)c(C=C2C(=O)Nc3ccc(S(=O)(=O)Nc4ccc(C(F)(F)F)cc4)cc32)c1 [10737/E07] | 43.1
O=C1Nc2ccc(S(=O)(=O)Nc3ccc(C(F)(F)F)cc3)cc2C1=Cc1ccc2ccccc2c1 [10737/E08] | 61.9
O=C1Nc2ccc(S(=O)(=O)Nc3ccc(C(F)(F)F)cc3)cc2C1=Cc1ccc(Oc2ccccc2)cc1 [10737/E09] | 21.2
CC(C)(C)c1ccc(Oc2cccc(C=C3C(=O)Nc4ccc(S(=O)(=O)Nc5ccc(C(F)(F)F)cc5)cc43)c2)cc1 [10737/E10] | 49.3
O=C1Nc2ccc(S(=O)(=O)Nc3ccc(C(F)(F)F)cc3)cc2C1=Cc1cccc(Oc2cccc(C(F)(F)F)c2)c1 [10737/E11] | 24.8
CCOc1ccc(C=C2C(=O)Nc3ccc(S(=O)(=O)N4CCOCC4)cc32)cc1 [10737/F02] | 67.4
Cc1ccc(C=C2C(=O)Nc3ccc(S(=O)(=O)N4CCOCC4)cc32)c(C)c1 [10737/F03] | 28.0
